Literature values in patent publication US10858526B2, “Water-based ink composition for ink jet recording and coloring material liquid” (Seiko Epson Corporation, priority 2017, dated 2020).

Conditions: water-soluble organic solvent

Row | SMILES | water-octanol partition coefficient (log P)
1 | CCCC(O)CCO (centres unmarked) [1,3-hexanediol] | 0.28
2 | CCCCOCCOCCO [butyl diglycol] | 0.56
